Laboratory results as given in patent US7022716B2, “Cyclic amine phenyl beta-3 adrenergic receptor agonists” (Wyeth, priority 2000, dated 2006).

What follows are compounds tested against T1, human β3 adrenergic receptor (Homo sapiens, UniProt P13945) (assay: cAMP (SPA) response in CHO cells transfected with human β3 adrenergic receptor). Conditions: maximal response relative to maximal response of isoproterenol at 10^-5 M.
T1 construct: Full length β3 AR clones (402 amino acids) containing the last 6 amino acids of hβ3-AR are prepared; expressed in transfected cells; host or cells: CHO (Chinese hamster ovary) cells
Type: cell-based
Design: key: fraction of maximal isoproterenol (10^-5 M) response
Experimental: Binding to the receptors was measured in Chinese Hamster ovary (CHO) cells that were transfected with adrenergic receptors.
The corresponding primer sequences are described in Mantzoros, C. […] The four fragments are ligated into a pUC 18 plasmid (Gibco-BRL) and sequenced.
CHO cells were grown in 24-well tissue culture plates in Dulbecco's Modified Eagle Media with 10% fetal bovine serum, MEM non-essential amino acids, Penicillin-Streptompycin and Geneticin. On the day of test procedure, growth medium was replaced with preincubation media (Dulbecco's Modified Eagle, Media) and incubated for 30 minutes at 37° C. […] Test compounds were tested over a concentration range of 10^−9 M to 10^−5 M for β3 cells and 10^−8 to 10^−4 M for β1 and β2 transfected cells. Isoproterenol (10^−5 M) was used as an internal standard for comparison of activity. Cells were incubated at 37° C. on a rocker for 30 min with the β3 cells and 15 min for β1 and β2 cells. Incubation was stopped with the addition of 0.2N HCl and neutralized with 2.5N NaOH. The plates, containing the cells and neutralized media, were stored at −20 degrees celsius until ready to test for cAMP using the SPA test kit (Amersham).
Data Analysis and Results: Data collected from the SPA test procedure were analyzed as percent of the maximal isoproterenol response at 10^−5 M. Activity curves were plotted using the SAS statistical and graphics software.

T1 sequence (P13945 whole entry): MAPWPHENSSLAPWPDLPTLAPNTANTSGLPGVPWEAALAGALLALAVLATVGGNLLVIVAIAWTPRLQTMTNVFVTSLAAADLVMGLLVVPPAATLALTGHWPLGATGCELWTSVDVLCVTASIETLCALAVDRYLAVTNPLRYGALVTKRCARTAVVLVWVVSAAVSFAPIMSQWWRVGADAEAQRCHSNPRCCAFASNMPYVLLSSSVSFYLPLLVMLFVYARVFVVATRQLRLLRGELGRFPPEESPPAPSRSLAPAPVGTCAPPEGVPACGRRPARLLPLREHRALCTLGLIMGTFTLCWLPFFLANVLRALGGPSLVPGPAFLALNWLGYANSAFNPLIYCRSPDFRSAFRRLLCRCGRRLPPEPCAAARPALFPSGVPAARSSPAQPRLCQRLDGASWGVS

Going from `CS(=O)(=O)Nc1cc([C@@H](O)CNC2CCN(c3ccc(NS(=O)(=O)c4ccsc4C(=O)O)cc3)CC2)ccc1O` [Example 321, 3-[(4-{4-[((2R)-2-Hydroxy-2-{4-hydroxy-3-[(methylsulfonyl)amino]phenyl}ethyl)amino]-1-piperidinyl}anilino)sulfonyl]-2-thiophenecarboxylic acid] to `CS(=O)(=O)Nc1cc([C@@H](O)CNC2CCN(c3ccc(NS(=O)(=O)c4cccnc4)cc3)CC2)ccc1O` [Example 326, N-(4-{4-[((2R)-2-Hydroxy-2-{4-hydroxy-3-[(methylsulfonyl)amino]phenyl}ethyl)amino]-1-piperidinyl}phenyl)-3-pyridinesulfonamide], the “IA(β3)” value rises from 1.05 to 1.3.

First: O=S(=O)(Nc1ccc(N2CCC(NC[C@H](O)COc3ccccc3)CC2)cc1)c1ccc(Oc2ncc(C(F)(F)F)cc2Cl)cc1 [Example 346, 4-{[3-Chloro-5-(trifluoromethyl)-2-pyridinyl]oxy}-N-[4-(4-{[(2S)-2-hydroxy-3-phenoxypropyl]amino}-1-piperidinyl)phenyl]benzenesulfonamide]
Second: CCCCOc1ccc(S(=O)(=O)Nc2ccc(N3CCC(NCC(O)COc4cccc5[nH]c6ccccc6c45)CC3)cc2)cc1 (stereo not drawn) [Example 289, 4-Butoxy-N-(4-{4-[3-(9H-carbazol-4-yloxy)-2-hydroxy-propylamino]-piperidin-1-yl}-phenyl)-benzenesulfonamide]
The “IA(β3)” value of the first is higher: 0.76 for the first, 0.59 for the second.

First: CC(=O)Nc1ccc(S(=O)(=O)Nc2ccc(N3CCC(NCC(O)c4cccc(O)c4)CC3)cc2)cc1 (stereo not drawn) [Example 257, N-[4-(4-{4-[2-Hydroxy-2-(3-hydroxy-phenyl)-ethylamino]-piperidin-1-yl}-phenylsulfamoyl)-phenyl]-acetamide]
Second: CC(=O)Nc1ccc(S(=O)(=O)Nc2ccc(N3CCC(NCC(O)c4ccc(O)cc4O)CC3)cc2)cc1 (stereo not drawn) [Example 268, N-(4-{[4-(4-{[2-(2,4-Dihydroxyphenyl)-2-hydroxyethyl]amino}-1-piperidinyl)-anilino]sulfonyl}phenyl)acetamide]
The “IA(β3)” value of the first is higher: 0.88 for the first, 0.64 for the second.

Going from `COc1ccc(S(=O)(=O)Nc2ccc(N3CCC(NCC(O)c4cccc(O)c4)CC3)cc2)cc1` (stereo not drawn) [Example 256, N-(4-{4-[2-Hydroxy-2-(3-hydroxy-phenyl)-ethylamino]-piperidin-1-yl}-phenyl)-4-methoxy-benzenesulfonamide] to `COC(=O)COc1ccc(S(=O)(=O)Nc2ccc(N3CCC(NC[C@H](O)c4ccc(O)c(NS(C)(=O)=O)c4)CC3)cc2)cc1` [Example 313, Methyl{4-[(4-{4-[((2R)-2-hydroxy-2-{4-hydroxy-3-[(methylsulfonyl)amino]-phenyl}ethyl)amino]-1piperidinyl}anilino)sulfonyl]phenoxy}acetate], the “IA(β3)” value rises from 0.85 to 1.

Compared with `O=C(CN1CCOCC1)Nc1ccc(N2CCC(NC[C@H](O)COc3cccc4[nH]c(=O)[nH]c34)CC2)cc1` [Example 383, N-{4-[4-({(2S)-2-Hydroxy-3-[(2-oxo-2,3-dihydro-1H-benzimidazol-4-yl)oxy]propyl}-amino)-1-piperidinyl]phenyl}-2-(4-morpholinyl)acetamide], `N#Cc1ccc(S(=O)(=O)Nc2ccc(N3CCC(NC[C@H](O)COc4cccc5[nH]c(=O)[nH]c45)CC3)cc2)cc1` [Example 284, 4-Cyano-N-{4-[4-({(2S)-2-hydroxy-3-[(2-oxo-2,3-dihydro-1H-benzimidazol-4-yl)oxy]propyl}amino)-1-piperidinyl]phenyl}benzenesulfonamide] is higher in “IA(β3)” value: 0.64 for the first, 0.87 for the second.

First: CC(=O)Nc1ccc(N2CC(NC[C@H](O)COc3cccc4[nH]c5ccccc5c34)C2)cc1 [Example 415, N-[4-(3-{[(2S)-3-(9H-Carbazol-4-yloxy)-2-hydroxypropyl]amino}-1-azetidinyl)phenyl]acetamide]
Second: CC(=O)Nc1ccc(S(=O)(=O)Nc2ccc(N3CCC(NC[C@H](O)COc4cccc5[nH]c6ccccc6c45)CC3)cc2)cc1 [Example 282, N-(4-{[4-(4-{[(2S)-3-(9H-Carbazol-4-yloxy)-2-hydroxypropyl]amino}-1-piperidinyl)-anilino]sulfonyl}phenyl)acetamide]
The “IA(β3)” value of the first is lower: 0.35 for the first, 0.63 for the second.

First: COc1ccc(S(=O)(=O)Nc2ccc(N3CCC(NC[C@H](O)COc4cccc5[nH]c6ccccc6c45)CC3)cc2)cc1OC [Example 292, N-[4-(4-{[(2S)-3-(9H-Carbazol-4-yloxy)-2-hydroxypropyl]amino}-1-piperidinyl)phenyl]-3,4-dimethoxybenzenesulfonamide]
Second: COc1ccc(S(=O)(=O)Nc2ccc(N3CCC(NC[C@H](O)COc4cccc5[nH]c(=O)[nH]c45)CC3)cc2)cc1OC [Example 359, N-{4-[4-({(2S)-2-Hydroxy-3-[(2-oxo-2,3-dihydro-1H-benzimidazol-4-yl)oxy]-propyl}amino)-1-piperidinyl]phenyl}-3,4-dimethoxybenzenesulfonamide]
The “IA(β3)” value of the first is lower: 0.75 for the first, 0.91 for the second.

Going from `CC(=O)Nc1ccc(S(=O)(=O)Nc2ccc(N3CC(NC[C@H](O)COc4ccc(O)cc4)C3)cc2)cc1` [Example 413, N-(4-{[4-(3-{[(2S)-2-Hydroxy-3-(4-hydroxyphenoxy)propyl]amino}-1-azetidinyl)anilino]-sulfonyl}phenyl)acetamide] to `COc1ccc(S(=O)(=O)Nc2ccc(N3CC(NC[C@H](O)COc4ccc(O)cc4)C3)cc2)cc1OC` [Example 412, N-[4-(3-{[(2S)-2-hydroxy-3-(4-hydroxyphenoxy)propyl]amino}-1-azetidinyl)phenyl]-3,4-dimethoxybenzenesulfonamide], the “IA(β3)” value falls from 0.73 to 0.56.

Compared with `CCCCc1ccc(S(=O)(=O)Nc2ccc(N3CCC(NC[C@H](O)COc4cccc5[nH]c(=O)[nH]c45)CC3)cc2)cc1` [Example 332, 4-Butyl-N-{4-[4-({(2S)-2-hydroxy-3-[(2-oxo-2,3-dihydro-1H-benzimidazol-4-yl)oxy]propyl}amino)-1-piperidinyl]phenyl}benzenesulfonamide.], `O=c1[nH]c2cccc(OC[C@@H](O)CNC3CCN(c4ccc(NS(=O)(=O)c5ccc(-c6ccccn6)s5)cc4)CC3)c2[nH]1` [Example 278, N-{4-[4-({(2S)-2-Hydroxy-3-[(2-oxo-2,3-dihydro-1H-benzimidazol-4-yl)oxy]propyl}-amino)-1-piperidinyl]phenyl}-5-(2-pyridinyl)-2-thiophenesulfonamide] is lower in “IA(β3)” value: 1.1 for the first, 1.04 for the second.

Compared with `COc1ccc(C(=O)Nc2ccc(N3CCC(NCC(O)c4ccc(O)c(NS(C)(=O)=O)c4)CC3)cc2)cc1OC` (stereo not drawn) [Example 385, N-(4-{4-[(2-Hydroxy-2-{4-hydroxy-3-[(methylsulfonyl)amino]phenyl}ethyl)amino]-1-piperidinyl}phenyl)-3,4-dimethoxybenzamide], `COc1ccc(S(=O)(=O)Nc2ccc(N3CCC(NC[C@H](O)COc4ccc(O)c5c4CCC(=O)N5)CC3)cc2)cc1OC` [Example 303, N-{4-[4-({(2S)-2-Hydroxy-3-[(8-hydroxy-2-oxo-1,2,3,4-tetrahydro-5-quinolinyl)oxy]-propyl}amino)-1-piperidinyl]phenyl}-3,4-dimethoxybenzenesulfonamide] is lower in “IA(β3)” value: 1.12 for the first, 0.96 for the second.

With `CCCCS(=O)(=O)Nc1ccc(N2CCC(NC[C@H](O)COc3ccc(O)c(NS(C)(=O)=O)c3)CC2)cc1` [Example 309, N-(4-{4-[((2S)-2-Hydroxy-3-{4-hydroxy-3-[(methylsulfonyl)amino]phenoxy}-propyl)amino]-1-piperidinyl}phenyl)-1-butanesulfonamide] the “IA(β3)” value was 1.
